Assay results reported in the Deep4Chem optical property database.
Values belong to the compound of their own block, whether it stands above or below them.

Assay: solvent given as SMILES

emission maximum (in C1CCCCC1): 406 nm | emission maximum (in C1CCOC1): 412 nm | emission maximum (in C1COCCO1): 410 nm | emission maximum (in CC#N): 421 nm | emission maximum (in CC(C)(C)O): 414 nm | emission maximum (in CC(C)O): 418 nm | emission maximum (in CCCCCC): 402 nm | emission maximum (in CCCCO): 420 nm | emission maximum (in CCO): 422 nm | emission maximum (in CCOC(C)=O): 412 nm | emission maximum (in CN(C)C=O): 423 nm | emission maximum (in CO): 428 nm | emission maximum (in CS(C)=O): 431 nm | emission maximum (in ClC(Cl)Cl): 415 nm | emission maximum (in ClCCl): 420 nm | emission maximum (in O): 444 nm | emission maximum (in OCCO): 429 nm
Structure (SMILES): CCc1ccc(/C=N/c2cc(C(C)C)c(O)cc2C)cc1

Structure (SMILES): COc1cccc2cc(-c3cc4cccc(OC)c4oc3=O)oc12
emission maximum (in CC#N): 488 nm | emission maximum (in CCOC(C)=O): 460 nm | emission maximum (in CS(C)=O): 488 nm | emission maximum (in Cc1ccccc1): 448 nm | emission maximum (in O): 504 nm

emission maximum (in C1CCOC1): 627 nm
Structure (SMILES): Cc1ccsc1-c1cc2c3cc(-c4sccc4C)c4nc(C(F)(F)C(F)(F)C(F)(F)F)nc5c(-c6sccc6C)cc(c6cc(-c7sccc7C)c7nc(C(F)(F)C(F)(F)C(F)(F)F)nc1c7c26)c3c45

Structure (SMILES): CC1(C)c2ccccc2N2c3ccccc3C3(c4cc(C#N)ccc4-c4ccc(C#N)cc43)c3cccc1c32
emission maximum (in Cc1ccccc1): 485.37 nm

Structure (SMILES): CN(C)c1ccc(-c2cc3ccc([N+](=O)[O-])cc3c(=O)o2)cc1
emission maximum (in CC(C)=O): 682 nm | emission maximum (in CCCCO): 559 nm | emission maximum (in CCOC(C)=O): 621 nm | emission maximum (in CN(C)C=O): 605 nm | emission maximum (in CO): 605 nm | emission maximum (in ClC(Cl)Cl): 652 nm

emission maximum (in C1CCOC1): 610 nm
Structure (SMILES): CC1=[N+]2C(=C(c3ccccc3)c3ccc(/C=C/c4ccc(C(=C(c5ccccc5)c5ccccc5)c5ccccc5)cc4)n3[B-]2(F)F)C=C1

Structure (SMILES): CC(C)(C)c1ccc2c(c1)c1cc(C(C)(C)C)ccc1n2-c1ccc(C#Cc2ccc(C=C(C#N)C#N)cc2)cc1
emission maximum (in CC#N): 490 nm | emission maximum (in CCCCC): 448 nm | emission maximum (in Cc1ccccc1): 554 nm | emission maximum (in ClCCl): 534 nm

Structure (SMILES): CCn1c2ccccc2c2cc(-c3cc(-c4ccc5c(c4)c4ccccc4n5CC)ncn3)ccc21
emission maximum (in C1CCOC1): 395 nm | emission maximum (in CCOC(C)=O): 392 nm | emission maximum (in CN(C)C=O): 418 nm | emission maximum (in Cc1ccccc1): 379 nm | emission maximum (in ClCCl): 414 nm

emission maximum (in CN(C)C=O): 408 nm
Structure (SMILES): Cc1ccc2[nH]c(-c3ccc(-c4ccc(-c5ccc(-c6nc7cc(C)ccc7[nH]6)cc5)c(C)c4)cc3)nc2c1

emission maximum (in ClC(Cl)Cl): 371 nm
Structure (SMILES): CC(C)(C)c1ccc2oc3nc4oc5ccc(N6c7ccccc7Sc7ccccc76)cc5c4cc3c2c1

emission maximum (in ClCCl): 604 nm
Structure (SMILES): COC(=O)c1ccc(C2=C3C=c4sccc4=[N+]3[B-](F)(F)n3c2cc2sccc23)cc1

Structure (SMILES): CCN(CC)c1ccc(-c2nc3c(nc2-c2ccc(B(c4c(C)cc(C)cc4C)c4c(C)cc(C)cc4C)cc2)c2ccccc2n3C)cc1
emission maximum (in C1CCCCC1): 462 nm | emission maximum (in C1CCOC1): 528 nm | emission maximum (in CC(C)=O): 544 nm | emission maximum (in CS(C)=O): 567 nm | emission maximum (in Cc1ccccc1): 493 nm

Structure (SMILES): CCCCCCCCCCCCC(CCCCCCCCCC)Cn1c2cc(C=C(C#N)C#N)c3cccc4c5cccc6c(C=C(C#N)C#N)cc1c(c65)c2c34 (stereo not given)
emission maximum (in C1CCCCC1): 603 nm | emission maximum (in CC#N): 641 nm | emission maximum (in Cc1ccccc1): 623 nm | emission maximum (in ClCCl): 635 nm

Structure (SMILES): c1ccc(-c2ccc(-c3ccc(-n4c5ccccc5c5ccccc54)cc3)c3nsnc23)cc1
emission maximum (in C1CCOC1): 527 nm | emission maximum (in CC(C)=O): 562 nm | emission maximum (in CCCCCC): 481 nm | emission maximum (in CCOCC): 504 nm

Structure (SMILES): CC1=[O+][B-]2(OC(=O)C(=O)O2)OC(c2c3ccccc3cc3ccccc23)=C1
emission maximum (in CC#N): 527 nm | emission maximum (in ClC(Cl)(Cl)Cl): 514 nm

emission maximum (in C1CCOC1): 494 nm
Structure (SMILES): c1ccc(/C(=C(\c2ccccc2)c2cc(-c3ccccc3)ccc2-c2ccc(-c3ccccc3)cc2)c2cc(-c3ccccc3)ccc2-c2ccc(-c3ccccc3)cc2)cc1

emission maximum (in C1CCCCC1): 657 nm | emission maximum (in CCOC(C)=O): 669 nm
Structure (SMILES): CC1=[N+]2C(=C(c3ccc(C=O)cc3)c3ccc(C)n3[B-]2(F)F)C=C1c1cc2n(c1)[B-](F)(F)[N+]1=CC=CC1=C2c1c(C)cc(C)cc1C

Structure (SMILES): CN(C)c1ccc(-c2c(/C=C3/C=Cc4ccccc4N3Cc3ccccc3)c(=O)c2=O)cc1
emission maximum (in C1CCCCC1): 427 nm | emission maximum (in Cc1ccccc1): 435 nm | emission maximum (in ClCCl): 586 nm

Structure (SMILES): CC(C)(C)c1cc2c(c(C(C)(C)C)c1)O[B-](F)(F)[n+]1c-2nc(-c2ccccc2)c2cc(Cl)ccc21
emission maximum (in Cc1ccccc1): 552 nm

emission maximum (in ClCCl): 448 nm
Structure (SMILES): CCOC(=O)c1sc(-c2ccc(-c3cc(C4CC4)c(C(=O)OCC)s3)s2)cc1C1CC1

emission maximum (in ClCCl): 359 nm
Structure (SMILES): C[Si](C)(c1ccc(-c2nc3ccccc3n2-c2ccccc2)cc1)c1ccc(-c2nc3ccccc3n2-c2ccccc2)cc1

Structure (SMILES): CC[N+]1(CC)CN2C(=N1)C(C(=O)O)=Cc1cc(C)ccc12
emission maximum (in O): 469 nm

Structure (SMILES): CCC1=C(C)C2=C(c3cc(C4=C5C(C)=C(CC)C(C)=[N+]5[B-](F)(F)n5c(C)c(CC)c(C)c54)cc(C4=C5C(C)=C(CC)C(C)=[N+]5[B-](F)(F)n5c(C)c(CC)c(C)c54)c3)c3c(C)c(CC)c(C)n3[B-](F)(F)[N+]2=C1C
emission maximum (in C1CCOC1): 567 nm | emission maximum (in CC#N): 556 nm | emission maximum (in CN(C)C=O): 570 nm | emission maximum (in Cc1ccccc1): 571 nm | emission maximum (in ClC(Cl)Cl): 571 nm

emission maximum (in CCO): 506 nm
Structure (SMILES): CC1(C)Nc2cc3nc4cc(Cl)c(Cl)cc4nc3cc2N1

emission maximum (in CC#N): 531 nm
Structure (SMILES): Cc1cc2nc3c(=O)n(C)c(=O)nc-3n(C)c2cc1C

emission maximum (in ClCCl): 422 nm
Structure (SMILES): CN(C)c1cc(-c2ccccc2)cc2ccccc12

Structure (SMILES): C(=C\c1cc(/C=C/c2ccc(-n3c4ccccc4c4ccccc43)cc2)cc(/C=C/c2ccc(-n3c4ccccc4c4ccccc43)cc2)c1)/c1ccc(-n2c3ccccc3c3ccccc32)cc1
emission maximum (in C1CCOC1): 403 nm | emission maximum (in CC#N): 429 nm | emission maximum (in Cc1ccccc1): 401 nm | emission maximum (in ClCCl): 419 nm

emission maximum (in ClCCl): 528 nm
Structure (SMILES): O=C(c1ccc2c3c(cccc13)-c1cccc3c1C2CC=C3)c1c(Cc2ccccc2)c2ccc3cccc4c5cccc6ccc1c(c65)c2c34 (stereo not given)

emission maximum (in C1COCCO1): 429 nm | emission maximum (in CC#N): 441 nm | emission maximum (in CO): 438 nm
Structure (SMILES): COc1ccc(/C=C/C=C/C2=NC3C(=O)NC(N)=NC3N2[C@H]2C[C@H](O)[C@@H](CO)O2)cc1 (stereo not given in full)

Structure (SMILES): COc1nc(Cl)nc(Nc2ccc3c4c(cccc24)C(=O)c2ccccc2-3)n1
emission maximum (in CC#N): 537.92 nm | emission maximum (in CC(C)=O): 526.87 nm | emission maximum (in CC(C)O): 570.13 nm | emission maximum (in CCCCOCCCC): 507.1 nm | emission maximum (in CCOC(C)=O): 520.02 nm | emission maximum (in CCOCC): 514.14 nm | emission maximum (in CO): 578.03 nm | emission maximum (in Cc1ccccc1): 518.13 nm | emission maximum (in Clc1ccccc1): 524.93 nm | emission maximum (in N#Cc1ccccc1): 526.04 nm | emission maximum (in O=C1CCCCC1): 524.11 nm

Structure (SMILES): CC(C)[Si](C#Cc1c2ccc(C(C)(C)C)cc2c(C#Cc2c3ccc(C(C)(C)C)cc3c(C#Cc3c4ccc(C(C)(C)C)cc4c(C#C[Si](C(C)C)(C(C)C)C(C)C)c4ccc(C(C)(C)C)cc34)c3ccc(C(C)(C)C)cc23)c2ccc(C(C)(C)C)cc12)(C(C)C)C(C)C
emission maximum (in Cc1ccccc1): 589 nm

emission maximum (in CCO): 446 nm
Structure (SMILES): CC(C)Nc1cc2sc3cc(NC(C)C)c(F)cc3c(=O)c2cc1F

emission maximum (in CC#N): 470 nm
Structure (SMILES): Cn1c(-c2ccc(-c3nc(-c4ccccc4)c(-c4ccccc4)n3C)s2)nc(-c2ccccc2)c1-c1ccccc1

emission maximum (in CC#N): 462 nm
Structure (SMILES): CC(C)(C)OC(=O)c1c(C=Cc2ccccc2)oc(NC2CCCCC2)c1C(=O)OC(C)(C)C

emission maximum (in CO): 375 nm
Structure (SMILES): COc1ccccc1-c1nc(-c2ccccc2)c(-c2ccccc2)[nH]1

emission maximum (in CC#N): 415 nm
Structure (SMILES): COc1ccc(-n2nc(C#N)c(N3CCCCC3)n2)cc1

Structure (SMILES): N#Cc1ccc(/C=C2\OC(=O)c3cc(N)ccc32)cc1
emission maximum (in CC#N): 485.44 nm | emission maximum (in CC(C)=O): 482.16 nm | emission maximum (in CC(C)CO): 502.26 nm | emission maximum (in CC(C)O): 496.03 nm | emission maximum (in CCCO): 498.26 nm | emission maximum (in CCO): 502.77 nm | emission maximum (in CCOC(C)=O): 467.73 nm | emission maximum (in CCOCC): 444.84 nm | emission maximum (in CO): 503.52 nm

emission maximum (in CC#N): 490 nm
Structure (SMILES): N#C/C(=C\c1ccc(C(F)(F)F)cc1)c1nc(-c2ccc(Cl)cc2)cs1

emission maximum (in ClCCl): 443 nm
Structure (SMILES): O=C(Nc1ccccc1[N+](=O)[O-])c1ccc2oc(-c3cc4ccccc4oc3=O)nc2c1

Structure (SMILES): COc1ccc(/C=C/c2cc(/C=C/c3ccc(OC)cc3)nc(/C=C/c3ccc4cc(OC)ccc4c3)n2)cc1
emission maximum (in C1CCOC1): 433 nm | emission maximum (in CC#N): 463 nm | emission maximum (in CC(C)=O): 445 nm | emission maximum (in CCCCCCC): 401 nm | emission maximum (in CS(C)=O): 471 nm | emission maximum (in Cc1ccccc1): 411 nm | emission maximum (in ClCCl): 443 nm

emission maximum (in ClC(Cl)Cl): 612 nm
Structure (SMILES): C[N+]1=c2cc3c(cc2C(C)(C)CC1)=C(c1ccccc1C(=O)O)c1cc2c(cc1O3)Oc1cc3c(cc1=C2c1ccccc1C(=O)O)C(C)(C)CC[N+]=3C

emission maximum (in CS(C)=O): 336 nm
Structure (SMILES): O=C1CC(=O)Nc2cc(Cl)ccc2N1

emission maximum (in ClC(Cl)Cl): 505 nm
Structure (SMILES): COc1ccc(-c2oc3cccc4c5c(-c6ccc(OC)cc6)c(=N)oc6cccc(c2c34)c65)cc1

Structure (SMILES): CCC1(CC)c2cc(B(c3c(C)cc(C)cc3C)c3c(C)cc(C)cc3C)ccc2-c2c1c1c(c3c2C(CC)(CC)c2cc(N(c4ccccc4)c4ccccc4)ccc2-3)C(CC)(CC)c2cc(B(c3c(C)cc(C)cc3C)c3c(C)cc(C)cc3C)ccc2-1
emission maximum (in C1CCOC1): 500 nm | emission maximum (in CC#N): 582 nm | emission maximum (in CC(C)=O): 550 nm | emission maximum (in CCCCCC): 421 nm | emission maximum (in CCCO): 501 nm | emission maximum (in CCO): 512 nm | emission maximum (in Cc1ccccc1): 444 nm | emission maximum (in ClC(Cl)Cl): 473 nm

Structure (SMILES): O=C(c1ccccc1)c1cc2ccc1CCc1ccc(c(-c3ccc(N(c4ccccc4)c4ccccc4)cc3)c1)CC2
emission maximum (in Cc1ccccc1): 455 nm | emission maximum (in c1cc(-n2c3ccccc3c3ccccc32)cc(-n2c3ccccc3c3ccccc32)c1): 468.87 nm

emission maximum (in O): 428 nm
Structure (SMILES): O=C(O)CCCCCn1c2ccccc2c(=O)c2cc(S(=O)(=O)O)ccc21

emission maximum (in CC#N): 430 nm
Structure (SMILES): Cc1cc(=O)c2c(ccc3ccc(O)cc32)o1

emission maximum (in ClC(Cl)Cl): 700 nm
Structure (SMILES): CN1C(=CC2=C([O-])C(=CC3=[N+](C)c4ccccc4C3(C)C)C2=C(C#N)C#N)C(C)(C)c2ccccc21
